Test results reported in patent US8993624B2, “Method of preventing and treating inflammatory diseases and disorders with abscisic acid” (Virginia Tech Intellectual Properties, Inc., priority 2010, dated 2015).

Legend:
[1] = target: T1, ligand-binding domain of PPAR γ (Homo sapiens, UniProt P37231); test: PPAR γ ligand-binding assay (Polarscreen PPAR Competitor Assay, Green); conditions: 0.001-10 μM, 4 hours
T1 construct: purchased Invitrogen
T1 sequence (P37231 238-503 limits assumed): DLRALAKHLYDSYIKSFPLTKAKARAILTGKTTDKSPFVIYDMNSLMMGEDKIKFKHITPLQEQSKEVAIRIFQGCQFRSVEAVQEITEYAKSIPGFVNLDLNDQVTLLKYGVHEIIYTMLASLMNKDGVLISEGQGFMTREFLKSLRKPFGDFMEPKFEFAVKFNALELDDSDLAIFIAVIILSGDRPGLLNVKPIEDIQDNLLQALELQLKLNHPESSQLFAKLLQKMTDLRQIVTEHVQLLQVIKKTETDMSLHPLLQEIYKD
Protocol: After 4 hours the ability of each compound to displace the fluorescent ligand, and therefore reduce the polarization values, was assessed using a fluorescent plate reader with 485 nm excitation and 535 nm emission. Results are a compilation of 4 independent experiments.

[2] = tested on: CD3/CD28-stimulated splenocytes; test: Intracellular cAMP and mRNA in CD3/CD28-stimulated splenocytes; assay type: cell-based, mouse
Protocol: Intracellular cAMP in CD3/CD28-stimulated splenocytes and LPS-stimulated macrophages—Spleens were excised from C57BL6/J mice under sterile conditions. Cells were released by disrupting the tissue between frosted glass slides and red blood cells were lysed with erythrocyte lysis buffer. Splenocytes were enumerated with a Coulter Counter (Beckman Coulter, Fullerton, Calif.) and seeded in cRPMI at 1×10^6/ml onto 24-well plates pre-coated with anti-mouse CD3 (5 μg/mL; BD Pharmingen) and anti-mouse CD28 (1 μg/mL; BD Pharmingen). […] For intracellular assessment of cAMP, cells were harvested into 0.1 M HCl and the lysates were collected. The cAMP concentration of the lysates was determined using an EIA kit (Assay Designs, Ann Arbor, Mich.).

[3] = tested on: LPS-stimulated bone marrow-derived macrophages; test: Inflammatory mediators in LPS-stimulated bone marrow-derived macrophages; assay type: cell-based, mouse; conditions: ABA 2.5 μM, 12 hours
Protocol: Bone Marrow-derived Macrophage (BMM) Cultures—Bone marrow cells from PPAR γ flfl; MMTV-Cre− (flfl-Cre−) and flfl-Cre+ mice were cultured in DMEM with M-CSF (50 ng/ml) for 7 days. Fresh media with M-CSF was added on day 3. […] Following differentiation macrophages were directly stimulated with LPS (100 ng/ml) as previously described for 12 hours (21). ABA was added to macrophage cultures at a concentration of 2.5 μM. The effect of ABA on LPS/toll-like receptor-4 (TLR4)-mediated prostaglandin E2 (PGE2), leukotriene B4 (LTB4) and monocyte chemoattractant protein-1 (MCP-1) production by macrophages was examined in cell supernatants 12 hours following the LPS challenge by using a commercial PGE2 EIA kit (Cayman Chemicals), a LTB4 competitive binding assay (R&D Systems) and a MCP-1 ELISA (R&D Systems), respectively, per the manufacturer's instructions.

NF-κB [4] = test: NF-κB reporter activity assay in RAW macrophages; conditions: data not shown
RXR = RXR reporter activity (data not shown); assay type: cell-based
RAR = RAR reporter activity (data not shown); assay type: cell-based
[5] = tested on: LPS-induced systemic inflammation; test: LPS challenge in mice, immune cell subsets by flow cytometry; assay type: in vivo, mouse
Protocol: Flow Cytometry—Mesenteric lymph nodes (MLN) and spleen-derived cells (2×10^5 cells/well) or whole blood (10 μL/well) were seeded onto 96-well plates, centrifuged at 4° C. at 3000 rpm for 4 minutes, and washed with PBS containing 5% fetal bovine serum and 0.09% sodium azide (FACS buffer). To assess differential monocyte/macrophage subsets, the cells were incubated in the dark at 4° C. for 20 minutes in FcBlock (20 μg/ml; BD Pharmingen), and then for an additional 20 minutes with fluorochrome-conjugated primary antibodies anti-F4/80-PE-Cy5 (5 μg/mL, eBioscience) and anti-CD 11b-Alexa Fluor 700 (2 μg/mL, eBioscience), and anti-TLR-4-PE-Cy7 (2 μg/mL, eBioscience). For lymphocyte assessment, cells were incubated with anti-CD4-FITC (2 μg/mL; BD Pharmingen), anti-CD8-PerCp-Cy5.5 (2 μg/mL, eBioscience), CD3 PE-Cy5 (2 μg/mL; BD Pharmingen), anti-TLR-4 PE-Cy7, and anti-IL17A-PE (2 μg/mL, eBioscience) as previously shown (23). Flow results were computed with a BD LSR II flow cytometer and data analyses was performed with FACS Diva software (BD).

NF-κB [6] = test: NF-κB reporter activity assay in 3T3-L1 cells

CC1=CC(=O)CC(C)(C)C1(O)/C=C/C(C)=C\C(=O)O (racemic) [ABA, abscisic acid]
ability to compete with the tracer for binding to the PPAR γ LBD [1]: not a PPAR γ ligand
LANCL2 mRNA expression [2]: not LANCL2 mRNA expression
PPAR γ expression [2]: upregulation of PPAR γ
intracellular cAMP ([2]; ABA 10 μM): significantly increased intracellular cAMP
phosphodiesterase activity ([2]; data not shown): without affecting phosphodiesterase activity
PGE2 secretion ([3]; EIA): significantly suppressed
MCP-1 secretion ([3]; ELISA): significantly suppressed
NF-κB reporter activity (NF-κB [4]): increased
RXR reporter activity (RXR): does not increase
RAR reporter activity (RAR): does not increase
TLR4 expression levels by macrophages ([5]; LPS-treated PPAR γ-expressing mice): reduced
percentages of blood monocytes (F4/80+CD11b+) ([5]; LPS-treated immune cell-specific PPAR γ null mice, diet 36 days): significantly increased
TLR4 expression in CD8+ T cells ([5]; non-LPS treated mice): significantly reduced
TLR4 expression in MLN F4/80+CD11b+ macrophages ([5]; supplemented diet 36 days): significantly suppressed
NF-κB reporter activity (NF-κB [6]): significantly suppressed
